# Measurements reported in patent US20020162125A1, “Methods and compositions for the modulation of neurogenic inflammatory pain and physical opiate withdrawal” (priority 2001, published 2002).
# Where two headings read alike, the source gives them in different places.
# Experiments:
# [1] = system: αCGRP −/− and αCGRP +/+ mice; experiment: Heroin self-administration (lever press operant task); type: in vivo
# Protocol: Following acquisition of stable heroin self-administration at 15.0 μg/kg/injection dose (3 consecutive sessions <+/−20% variation, >70% active lever responding), mice were allowed to self-administer heroin at each dose during two daily two-hr sessions in a Latin square dose order. After all heroin doses had been tested, saline vehicle was substituted for heroin until responding stabilized for at least 2 consecutive sessions (data points above “saline”).
# All procedures involving animals described here were approved by the Service Vétérinaire of the Canton of Vaud, Lausanne, Switzerland. Six individually housed mice of each genotype (CGRP −/− and +/+) were tested during the light phase (12/12; lights on 7:00 am) in daily sessions 5 days/week. Operant chambers housed in sound-attenuating cubicles with a house light and ventilation fan were equipped with cue lights above two retractable levers, a liquid dipper, syringe pump, liquid swivel and counterbalance arm (swivel and counterbalance arms—Instech, Plymouth Meeting, Pa., USA; all other equipment—MedAssociates, Georgia, Vt., USA). A single lever press on the “active” lever raised the dipper into the cage for 10 s and illuminated the cue light above the lever during reinforcer presentation and for a 1-10 s post-reinforcer Time-out (TO) period, depending on the schedule of reinforcement. […]
# [2] = system: αCGRP −/− and αCGRP +/+ mice; experiment: Morphine tolerance in the tail-flick assay after repeated injections; type: in vivo; conditions: αCGRP −/− vs +/+ mice; repeated ip morphine, day 1-2 50 mg/kg, day 3-4 100 mg/kg
# Protocol: Daily injections ip of morphine were performed: day 1 and 2, 50 mg/kg, day 3-4, 100 mg/kg. Analgesia morphine was tested. αCGRP −/− and +/+ mice were analyzed in parallel.
# [3] = system: αCGRP −/− and αCGRP +/+ mice; conditions: αCGRP −/− mice vs +/+, 30 min after injection
# Protocol: The tail flick assay was performed with a tail flick analgesia meter from Columbus Instruments. The cut-off time of the test was 10 seconds.
# Morphine or nicotine analgesia were analyzed by using tail flick and hot plate tests. The tests were performed 30 minutes after the injection of drug on αCGRP −/− and +/+ mice.
# [4] = system: αCGRP −/− and αCGRP +/+ mice; experiment: Morphine dependence, naloxone-precipitated somatic withdrawal signs
# Protocol: Morphine dependence was induced by repeated ip morphine injection for one week: day 1 and 2, 50 mg/kg; day 3 and 4, 100 mg/kg; days 5-7, 100 mg/kg twice/day; day 8, 100 mg/kg in the morning. […] The inventors noted the behavioral withdrawal symptoms (jumping, teeth chattering, tremors, paw tremors, wet dog shakes, ptosis, diarrhea) during 30 minutes after naloxone injection.
# [5] = system: αCGRP −/− and αCGRP +/+ mice; conditions: αCGRP −/− mice vs +/+; nicotine 0.5 and 2.0 mg/kg sc; data not shown
structure (smiles),measurement,setting,value
CC(=O)Oc1ccc2c3c1O[C@H]1[C@@H](OC(C)=O)C=C[C@H]4[C@@H](C2)N(C)CC[C@@]341 [heroin],intake (injections per session) at 30 μg/kg/injection vs 7.5 and 15.0 μg/kg/injection doses,"[1]; both genotypes, P<0.05",differed significantly
same,acquisition or maintenance of self-administration,"[1]; αCGRP −/− vs +/+ mice, 3.75-30 μg/kg/injection iv, FR2",did not differ
CN1CC[C@]23c4c5ccc(O)c4O[C@H]2[C@@H](O)C=C[C@H]3[C@H]1C5 [morphine],"progressive decrease in amplitude of antinociceptive response (tolerance), tail-flick",[2],did not differ
same,analgesic response in tail-flick (% MPE),[3]; morphine 1 mg/kg ip,attenuated
same,analgesic response in tail-flick (% MPE),[3]; morphine 5 mg/kg ip,to a lesser extent
C=CCN1CC[C@]23c4c5ccc(O)c4O[C@H]2C(=O)CC[C@@]3(O)[C@H]1C5 [naloxone],withdrawal signs in saline-treated control mice,"[4]; naloxone 2 mg/kg ip, mutant and wild type, data not shown",did not induce any withdrawal signs
same,total withdrawal scores,"[4]; αCGRP −/− vs +/+ mice made morphine dependent, naloxone 0.1, 0.2 and 2.0 mg/kg ip",significantly lower
same,frequency of each somatic sign of morphine withdrawal (e.g. jumping),"[4]; αCGRP −/− vs +/+ mice made morphine dependent, precipitated by naloxone",reduced
CN1CCCC1c1cccnc1 (stereo not shown) [nicotine],analgesic effects in hot-plate test,[5],significantly increased
same,analgesic effects in tail-flick (% MPE),[3]; nicotine 0.5 and 2.0 mg/kg sc,significantly increased
